Reference: ChEMBL document CHEMBL3393018, “Multimodal biopanning of T7 phage-displayed peptides reveals angiomotin as a potential receptor of the anti-angiogenic macrolide Roxithromycin” (Eur J Med Chem, 2015)
The source made the active and inactive calls. The calls are words filed in the database; no cut-off is given here.

Columns and labels:
[1] = target: T1, Angiomotin (Homo sapiens) (UniProt Q4VCS5); assay: Binding affinity to recombinant GST-tagged Amot (H343 to I675 residues) (unknown origin) expressed in Escherichia coli at 50 uM using Amot immobilized on gold electrode of QCM sensor chip by […] biosensor-based assay
T1 sequence (whole entry): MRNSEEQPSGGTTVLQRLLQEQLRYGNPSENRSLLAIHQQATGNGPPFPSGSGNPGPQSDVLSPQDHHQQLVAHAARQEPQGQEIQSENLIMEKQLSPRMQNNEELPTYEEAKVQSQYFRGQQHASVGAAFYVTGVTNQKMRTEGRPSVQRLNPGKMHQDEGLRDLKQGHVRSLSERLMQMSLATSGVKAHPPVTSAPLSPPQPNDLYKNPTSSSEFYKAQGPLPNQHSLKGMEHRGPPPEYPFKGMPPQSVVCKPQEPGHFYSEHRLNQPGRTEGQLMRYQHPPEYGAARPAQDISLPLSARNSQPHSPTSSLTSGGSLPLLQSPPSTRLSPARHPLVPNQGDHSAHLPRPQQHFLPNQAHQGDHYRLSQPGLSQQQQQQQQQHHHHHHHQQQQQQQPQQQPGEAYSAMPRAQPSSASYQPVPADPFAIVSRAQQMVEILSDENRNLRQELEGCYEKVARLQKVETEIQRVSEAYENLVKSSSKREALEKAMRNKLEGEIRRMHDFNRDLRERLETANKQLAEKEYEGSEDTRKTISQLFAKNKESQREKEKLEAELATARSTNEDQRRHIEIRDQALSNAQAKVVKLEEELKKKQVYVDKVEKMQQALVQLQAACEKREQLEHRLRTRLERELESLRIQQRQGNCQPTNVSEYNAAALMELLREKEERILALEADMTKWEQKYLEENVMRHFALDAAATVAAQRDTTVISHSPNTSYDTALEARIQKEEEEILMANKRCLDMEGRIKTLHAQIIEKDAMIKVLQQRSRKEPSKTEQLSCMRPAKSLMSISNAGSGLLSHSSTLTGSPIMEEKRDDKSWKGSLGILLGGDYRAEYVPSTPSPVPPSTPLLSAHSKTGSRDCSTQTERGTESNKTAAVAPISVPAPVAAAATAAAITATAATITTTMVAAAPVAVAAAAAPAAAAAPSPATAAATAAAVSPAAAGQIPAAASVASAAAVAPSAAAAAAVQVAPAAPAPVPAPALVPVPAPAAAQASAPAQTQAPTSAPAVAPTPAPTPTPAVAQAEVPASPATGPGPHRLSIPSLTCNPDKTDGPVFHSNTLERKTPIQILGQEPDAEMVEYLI

HUVEC = assay: Inhibition of cell proliferation of HUVEC at 12.5 to 200 uM after 72 hrs by MTS assay; assay type: functional, cell-based; conditions: Homo sapiens
[2] = target: T1, Angiomotin (Homo sapiens); assay: Binding affinity to recombinant GST-tagged Amot (H343 to I675 residues) (unknown origin) expressed in Escherichia coli at 25 uM using Amot immobilized on gold electrode of QCM sensor chip by […] biosensor-based assay

Structure (SMILES): CC[C@H]1OC(=O)[C@H](C)[C@@H](O[C@H]2C[C@@](C)(OC)[C@@H](O)[C@H](C)O2)[C@H](C)[C@@H](O[C@@H]2O[C@H](C)C[C@H](N(C)C)[C@H]2O)[C@](C)(O)C[C@@H](C)/C(=N\OCOCCOC)[C@H](C)[C@@H](O)[C@]1(C)O [ROXITHROMYCIN]
- Activity [1]: Active
- IC50 (HUVEC): 100 µM
- Activity [2]: Active
